How the values were obtained:
[1] = biological target: T1, PRMT5 (Homo sapiens, UniProt O14744); assay: PRMT5 IC50 assay in the presence of MTA as cofactor; format: biochemical; details: for IC50: PRMT5, MTA as cofactor; for SAM/MTA Ratio: ratio between Ki in the presence of SAM and Ki in the presence of MTA
T1 construct: purchased Viva (custom protein)
Outline: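 MTA-dependent versus SAM-dependent inhibition of human PRMT5 was assessed by IC50; conversion factors of 13.5 and 1.5 gave the corresponding Ki.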

[2] = test system: HAP1 MTAP-deleted; assay: SDMA in-cell western assay, HAP1 MTAP-deleted cell line; format: cell-based; details: for IC50: Homo sapiens, HAP1 MTAP-deleted cell line; for MTAP Intact/Deleted Ratio: IC50 ratio HAP1 MTAP-intact / HAP1 MTAP-deleted
Outline: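 IC50 from SDMA in-cell western; HAP1 line lacking MTAP (null), paired isogenically with MTAP-intact HAP1 expressing endogenous MTAP.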

[3] = biological target: T1, PRMT5; assay: PRMT5 IC50 assay in the presence of SAM as cofactor; format: biochemical
Outline: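 Cofactor-free, SAM and MTA formats; IC50 μM; Ki = IC50/1.5 for SAM, IC50/13.5 for MTA.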

[4] = biological target: T1, PRMT5; assay: PRMT5 IC50 assay with no cofactor; format: biochemical; details: read-out: No Co-factor IC50
Outline: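 IC50 values were measured against human PRMT5 with SAM, with MTA, or with no cofactor. Ki was derived from IC50 as Ki=IC50/1.5 with SAM and Ki=IC50/13.5 with MTA, and the Ki(SAM)/Ki(MTA) ratio was then taken.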

[5] = test system: HAP1 MTAP-intact; assay: SDMA in-cell western assay, HAP1 MTAP-intact cell line; format: cell-based; details: Homo sapiens
Outline: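 HAP1 isogenic pair: endogenous MTAP vs MTAP-null. Readout SDMA by in-cell western; IC50 per line. Ratio ≥3 fold = MTAP-selective.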

T1 sequence (O14744 whole entry): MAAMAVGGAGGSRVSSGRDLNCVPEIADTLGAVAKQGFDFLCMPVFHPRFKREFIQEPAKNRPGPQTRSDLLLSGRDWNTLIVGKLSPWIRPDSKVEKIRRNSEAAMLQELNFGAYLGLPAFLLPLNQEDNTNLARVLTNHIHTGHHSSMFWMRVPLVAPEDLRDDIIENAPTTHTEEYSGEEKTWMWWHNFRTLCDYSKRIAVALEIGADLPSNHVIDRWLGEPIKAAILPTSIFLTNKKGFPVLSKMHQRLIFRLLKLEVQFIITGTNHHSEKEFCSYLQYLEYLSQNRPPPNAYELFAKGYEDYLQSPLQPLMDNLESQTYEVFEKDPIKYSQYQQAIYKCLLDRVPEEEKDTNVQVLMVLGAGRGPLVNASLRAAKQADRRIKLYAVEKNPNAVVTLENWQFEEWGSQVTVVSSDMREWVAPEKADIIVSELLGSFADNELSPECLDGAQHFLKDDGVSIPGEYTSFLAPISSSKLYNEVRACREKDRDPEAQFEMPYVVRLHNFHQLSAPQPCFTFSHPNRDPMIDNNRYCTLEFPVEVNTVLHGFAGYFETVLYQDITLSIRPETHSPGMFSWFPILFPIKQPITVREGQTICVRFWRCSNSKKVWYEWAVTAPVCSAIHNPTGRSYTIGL
T1 sequence (Q9BQA1 whole entry partner): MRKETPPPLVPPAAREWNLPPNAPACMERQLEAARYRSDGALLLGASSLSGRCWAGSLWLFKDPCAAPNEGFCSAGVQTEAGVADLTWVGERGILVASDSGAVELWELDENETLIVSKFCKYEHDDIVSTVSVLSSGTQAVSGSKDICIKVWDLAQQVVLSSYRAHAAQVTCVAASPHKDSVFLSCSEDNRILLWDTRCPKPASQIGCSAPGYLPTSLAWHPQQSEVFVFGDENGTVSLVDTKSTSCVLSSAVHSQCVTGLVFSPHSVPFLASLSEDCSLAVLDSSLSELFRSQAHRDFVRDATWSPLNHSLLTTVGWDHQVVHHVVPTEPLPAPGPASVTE

Question: How did the IC50 [1] turn out when `CC(=O)N1CC(Nc2cc(C(=O)NC[C@H](O)CN3CCc4cc(OCc5cnco5)ccc4C3)nc(C(C)C)n2)C1` [Compound 349, (S)-6-((1-acetylazetidin-3-yl)amino)-N-(2-hydroxy-3-(6-(oxazol-5-ylmethoxy)-3,4-dihydroisoquinolin-2(1H)-yl)propyl)-2-isopropylpyrimidine-4-carboxamide] was run?
Answer: 50 to 500 nM

Question: What about the “SAM/MTA Ratio” value [1] of the same compound?
Answer: A (a Ki ratio greater than or equal to 10 fold between the Ki in the presence of SAM and the Ki in the presence of MTA)

Question: And the IC50 [2]?
Answer: < 1000 nM

Question: And the “MTAP Intact/Deleted Ratio” value [2]?
Answer: C* (an IC50 ratio of less than 3 fold between the IC50 in the HAP1 MTAP-intact cell line and the HAP1 MTAP-deleted cell line)

Question: What about the IC50 [3] of the same compound?
Answer: 50 to 500 nM

Question: What about the IC50 [4] of the same compound?
Answer: 500 to 5000 nM

Question: What about the IC50 [5] of the same compound?
Answer: < 1000 nM

Question: `Cc1ncoc1COc1ccc2c(c1Br)CCN(C[C@@H](O)CNC(=O)c1ccnc(NC3CCCC3)c1)C2` [Compound 350, (S)—N-(3-(5-bromo-6-((4-methyloxazol-5-yl)methoxy)-3,4-dihydroisoquinolin-2(1H)-yl)-2-hydroxypropyl)-2-(cyclopentylamino)isonicotinamide] was tested. Which IC50 [1] did it give?
Answer: 50 to 500 nM

Question: And the “SAM/MTA Ratio” value [1]?
Answer: A (a Ki ratio greater than or equal to 10 fold between the Ki in the presence of SAM and the Ki in the presence of MTA)

Question: And the IC50 [2]?
Answer: ≥ 10000 nM

Question: What about the “MTAP Intact/Deleted Ratio” value [2] of the same compound?
Answer: C* (an IC50 ratio of less than 3 fold between the IC50 in the HAP1 MTAP-intact cell line and the HAP1 MTAP-deleted cell line)

Question: What about the IC50 [3] of the same compound?
Answer: 50 to 500 nM

Question: What about the IC50 [4] of the same compound?
Answer: ≥ 5000 nM

Question: And the IC50 [5]?
Answer: ≥ 10000 nM

Question: For `Cc1c(OCc2cnco2)ccc2c1CCN(C[C@@H](O)CNC(=O)c1cccc(NC3CCC3)c1)C2` [Compound 351, 3-(cyclobutylamino)-N-[(2S)-2-hydroxy-3-{5-methyl-6-[(1,3-oxazol-5-yl)methoxy]-1,2,3,4-tetrahydroisoquinolin-2-yl}propyl]benzamide], which IC50 [1] is on record?
Answer: 50 to 500 nM

Question: And the “SAM/MTA Ratio” value [1]?
Answer: A (a Ki ratio greater than or equal to 10 fold between the Ki in the presence of SAM and the Ki in the presence of MTA)

Question: What about the IC50 [2] of the same compound?
Answer: ≥ 10000 nM

Question: And the “MTAP Intact/Deleted Ratio” value [2]?
Answer: C* (an IC50 ratio of less than 3 fold between the IC50 in the HAP1 MTAP-intact cell line and the HAP1 MTAP-deleted cell line)

Question: And the IC50 [3]?
Answer: 500 to 5000 nM

Question: What about the IC50 [4] of the same compound?
Answer: ≥ 5000 nM

Question: And the IC50 [5]?
Answer: ≥ 10000 nM

Question: How did the IC50 [1] turn out when `CC(=O)N1CC(Nc2cc(C(=O)NC[C@H](O)CN3CCc4c(ccc(OCc5cnco5)c4Cl)C3)nc(N3CCOCC3)n2)C1` [Compound 352, (S)-6-((1-acetylazetidin-3-yl)amino)-N-(3-(5-chloro-6-(oxazol-5-ylmethoxy)-3A-dihydroisoquinolin-2(1H)-yl)-2-hydroxypropyl)-2-morpholinopyrimidine-4-carboxamide] was run?
Answer: 50 to 500 nM

Question: And the “SAM/MTA Ratio” value [1]?
Answer: A (a Ki ratio greater than or equal to 10 fold between the Ki in the presence of SAM and the Ki in the presence of MTA)

Question: What about the IC50 [2] of the same compound?
Answer: 1000 to 10000 nM

Question: What about the “MTAP Intact/Deleted Ratio” value [2] of the same compound?
Answer: C* (an IC50 ratio of less than 3 fold between the IC50 in the HAP1 MTAP-intact cell line and the HAP1 MTAP-deleted cell line)

Question: And the IC50 [3]?
Answer: 50 to 500 nM

Question: What about the IC50 [4] of the same compound?
Answer: 500 to 5000 nM

Question: What about the IC50 [5] of the same compound?
Answer: ≥ 10000 nM

Question: How did the IC50 [1] turn out when `CCN1CCN(c2nc(NC3COC3)cc(C(=O)NC[C@H](O)CN3CCc4cc(OCc5cnco5)ccc4C3)n2)CC1` [Compound 353] was run?
Answer: 50 to 500 nM

Question: And the “SAM/MTA Ratio” value [1]?
Answer: A (a Ki ratio greater than or equal to 10 fold between the Ki in the presence of SAM and the Ki in the presence of MTA)

Question: And the IC50 [2]?
Answer: 1000 to 10000 nM

Question: And the “MTAP Intact/Deleted Ratio” value [2]?
Answer: C* (an IC50 ratio of less than 3 fold between the IC50 in the HAP1 MTAP-intact cell line and the HAP1 MTAP-deleted cell line)

Question: And the IC50 [3]?
Answer: 50 to 500 nM

Question: What about the IC50 [4] of the same compound?
Answer: 500 to 5000 nM

Question: And the IC50 [5]?
Answer: 1000 to 10000 nM

Question: Which results are given for `Cc1ncoc1COc1ccc2c(c1Br)CCN(C[C@@H](O)CNC(=O)c1cccc(NC3CCC3)c1)C2` [Compound 354, (S)—N-(3-(5-bromo-6-((4-methyloxazol-5-yl)methoxy)-3,4-dihydroisoquinolin-2(1H)-yl)-2-hydroxypropyl)-3-(cyclobutylamino)benzamide]?
Answer: IC50 [1]: 500 to 5000 nM; IC50 [2]: ≥ 10000 nM; MTAP Intact/Deleted Ratio [2]: C* (an IC50 ratio of less than 3 fold between the IC50 in the HAP1 MTAP-intact cell line and the HAP1 MTAP-deleted cell line); IC50 [3]: 500 to 5000 nM; IC50 [4]: ≥ 5000 nM; IC50 [5]: ≥ 10000 nM

— patent publication US11986471B2, “Compounds and methods of use” (Tango Therapeutics, Inc., priority 2018, dated 2024)
